Measured values reported in patent US8278044B2, “Method for the identification of carcinogenic compounds” (priority 2008, dated 2012).

What was measured:
HepG2 cells [1] = experiment: Flow cytometric analysis of cell cycle; assay type: cell-based, human; details: 3 μM BaP
Protocol: (§1) Two independent experiments were conducted.
(§2) Analyses of cell cycle profiles and apoptosis was performed as previously described using a FACSort (Becton Dickinson, Sunnyvale, USA) (29). For DNA content cells were stained with propidium iodide; apoptotic cells were visualised with the primary antibody M30 CytoDeath (Roche, Penzberg, Germany) and FITC conjugated anti-mouse Ig as secondary antibody (DakoCytomation, Glostrup, Denmark). For each sample 10,000 cells were analyzed. Cells in the G0-1, S or G2-M phase were expressed as a percentage of the total number of cells.

HepG2 cells [2] = experiment: Flow cytometric analysis of apoptosis (M30 CytoDeath); assay type: cell-based; details: human, 3 μM
Protocol: as §1, §2

HepG2 cells [3] = experiment: Gene expression analyses with DNA microarrays (Agilent), Reactome and T-profiler; assay type: cell-based, human; details: 3 μM BaP
Protocol: Labelling and hybridisation of RNA samples was done according to Agilent's manual for microarrays (Agilent Technologies, Breda, The Netherlands). […] For each biological experiment, two hybridizations per time point were conducted, with swapped Cy3 and Cy5 dyes.
The images (10 micron resolution; 16 bit tiff) were processed with ImaGene 6.0 to quantify spot signals (BioDiscovery Inc., Los Angeles, USA). Irregular spots were automatically flagged and excluded from data analysis. Data from ImaGene were further processed with GeneSight 4.1.6 (BioDiscovery Inc., Los Angeles, USA). For each spot, background was subtracted and flagged spots as well as spots with a net expression level below 20 in both channels were omitted. Data were log base 2 transformed and LOWESS normalized. If for a gene more probes were on the array, replicates were averaged while omitting outliers (>2 standard deviations). Raw data are available at ArrayExpress (accession numbers E-TOXM-22 and E-TOXM-23, for the first and second experiment respectively) (www.ebi.ac.uk/arrayexpress/).
Second, genes were selected by ANOVA using the plug-in “Time series analysis” from BRB Array Tools (version 3.4 and R version 2.2.0; linus.nci.nih.gov/BRB-ArrayTools.html) with “Time” as descriptor.
Reactome (www.reactome.org; Version 25, August 2008) (45) is used to examine the biological processes that may be affected at the level of reactions and reaction pathways, a level of detail that cannot be obtained by gene ontology annotations, and KEGG and BioCarta pathways. Reactions are grouped into causal chains to form pathways. […] The ratio of these number of differentially genes per event with total numbers present in the set of 2808 genes, are used for visualisation of affected pathways. Rctions were ordered by main pathway and sub-pathway.
T-profiler is used for functional annotation of pathways and processes in the complete data set of genes without pre-selecting modulated genes. T-profiler uses the unpaired t-test to score the difference between the mean expression level of predefined sets of genes and that of all other genes within the complete data set (46). […] Per experiment and time point t-values were determined for each gene set. Only gene sets with an absolute t-value>4 at at least 2 succeeding time points in both experiments were selected for further analyses.

c1ccc2c(c1)cc1ccc3cccc4ccc2c1c34 [BaP, benzo[a]pyrene]
duration of S-phase accumulation (HepG2 cells [1]): 6 to 18 h | time after which cell cycle distribution becomes similar to that of the controls (HepG2 cells [1]): about 54 h | S-phase cells (HepG2 cells [1]; at 18 h, concomitant decrease of cells in G1 and G2 phases): drastic increase | apoptotic cells levels (HepG2 cells [2]): 0.5-3% | POLR2A expression (TC-NER) (HepG2 cells [3]): upregulated at early time points | POLR2D expression (TC-NER) (HepG2 cells [3]): downregulated at late time points | base excision repair and global genomic repair pathways (HepG2 cells [3]): induced from 9/12 h until 60 h | period of upregulation of DDB2 (GG-NER) (HepG2 cells [3]): 9 to 60 h | period of upregulation of GC-NER (global genomic NER) reaction pathway (HepG2 cells [3]): 9 to 60 h | period of upregulation of TC-NER reaction pathway (HepG2 cells [3]): 9 to 42 h
